Molecules are shown by their SMILES.

Eleven compounds from US6723755B2, “Method of treating rosacea” (priority 2002, dated 2004) can be followed below.

For one series, the system named is rosacea. Nature of the series: topical treatment of rosacea (related materials tested). As to conditions: topical application. In kind it is in vivo, humans.
In the next series the test system is skin. Nature of the series: skin irritation on topical application. In kind it is in vivo.

In the case of `OC1CCCC1O` (stereo not drawn) [1,2-cyclopentanediol], the “usefulness in the present invention (treatment of rosacea)” value (“usefulness in the present invention” below) in the series on rosacea was “do not work”. The same measure, in the same setting: the same measure for `CC1(O)CCCCC1` [1-methylcyclohexanol]: “not to be useful”; for `OCCCCC1CCCCC1` [4-cyclohexyl-1-butanol]: “not to be useful”; for `OCC1(CO)CC2C=CC1C2` (stereo not drawn) [5-norborene-2,2-dimethanol]: “do not work”. Consider `CC1(C)[C@H]2C[C@H]1[C@@](C)(O)[C@@H](O)C2` [(1R,2R,3S,5S-(−))-pinanediol], for which the “usefulness in the present invention” value in the series with rosacea was “do not work”.

On to `C1CCCCC1` [cyclohexane], for which the “usefulness in the present invention” value in the series on rosacea is “not to be useful”. For the compound `C1=CCCCC1` [cyclohexene], the “usefulness in the present invention” value in the series with rosacea is listed as “not to be useful”.

Regarding `CC(=O)OC1CCCCC1` [cyclohexyl acetate], the “usefulness in the present invention” value in the series with rosacea was “not to be useful”. Turning to `O=C(O)C1CCCCC1` [cyclohexyl carboxylic acid], in the series with rosacea, the “usefulness in the present invention” value is “not to be useful”. Take `ClC1CCCCC1` [cyclohexyl chloride]: the “usefulness in the present invention” value with rosacea is listed as “not to be useful”. Consider `CC1CCC(C(C)C)C(O)C1` (stereo not drawn) [menthol], for which, in the series on rosacea, the “usefulness in the present invention” value was “not to be useful”. In addition, the “irritation (reddening) of the skin to which it is applied” value in the series with skin was “can irritate (and thereby redden) the skin”.
